Assay results: patent US20240190851A1, “FURAN FUSED RING-SUBSTITUTED GLUTARIMIDE COMPOUND” (MEDSHINE DISCOVERY INC., priority 2021, published 2024)
Where a name gives a salt, the structure may show the parent alone.

How the values were obtained:
AR F876L = target: T1, AR F876L (Homo sapiens, UniProt P10275, F877L); assay: In cell western of AR protein in 293T AR F876L cells; assay type: cell-based; settings: AR degradation, 48 hours
T1 construct: expressed in transfected cells; host or cells: 293T AR F876L
T1 sequence (P10275 1-920 F877L): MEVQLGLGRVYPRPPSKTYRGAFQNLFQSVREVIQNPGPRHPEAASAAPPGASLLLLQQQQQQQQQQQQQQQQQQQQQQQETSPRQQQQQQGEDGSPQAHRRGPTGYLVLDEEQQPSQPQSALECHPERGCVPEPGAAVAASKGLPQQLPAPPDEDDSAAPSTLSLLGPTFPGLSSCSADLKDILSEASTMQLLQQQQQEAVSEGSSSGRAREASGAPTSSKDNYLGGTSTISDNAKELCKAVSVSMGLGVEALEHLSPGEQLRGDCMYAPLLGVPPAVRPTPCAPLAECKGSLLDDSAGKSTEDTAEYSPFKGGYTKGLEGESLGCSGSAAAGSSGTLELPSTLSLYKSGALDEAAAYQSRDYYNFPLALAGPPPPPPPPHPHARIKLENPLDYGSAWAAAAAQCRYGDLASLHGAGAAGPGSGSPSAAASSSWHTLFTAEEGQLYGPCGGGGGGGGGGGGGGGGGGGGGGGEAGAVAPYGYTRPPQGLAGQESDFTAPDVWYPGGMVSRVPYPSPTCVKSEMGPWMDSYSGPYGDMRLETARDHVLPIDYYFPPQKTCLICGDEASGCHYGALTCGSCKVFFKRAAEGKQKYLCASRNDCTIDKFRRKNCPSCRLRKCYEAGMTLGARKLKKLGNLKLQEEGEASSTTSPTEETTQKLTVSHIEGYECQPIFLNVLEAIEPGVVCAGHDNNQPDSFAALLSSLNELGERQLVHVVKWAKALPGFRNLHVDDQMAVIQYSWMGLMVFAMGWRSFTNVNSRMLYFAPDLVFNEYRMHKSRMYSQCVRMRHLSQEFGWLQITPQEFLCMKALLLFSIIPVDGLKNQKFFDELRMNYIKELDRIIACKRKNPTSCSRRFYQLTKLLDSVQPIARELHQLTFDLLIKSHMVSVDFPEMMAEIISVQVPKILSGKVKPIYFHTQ
Experimental: Experimental purpose: In this experiment, the effects of compounds WX015, WX016, and WX017 on the expression level of AR protein with point mutation in cell line 293T AR F876L were detected by in cell western assay to evaluate the degradation effect of compounds on proteins with AR F876L point mutation.
The cell line was cultured in a 37° C., 5% CO2 incubator. Regular passage, and cells in logarithmic growth phase were taken for plating.
2. Cell Plating: • 1) Cells were stained with trypan blue and viable cells were counted. • 2) The cell concentration was adjusted to an appropriate concentration with a density of 20000/well. • 3) 90 μL of cell suspension per well was added to a 96-well culture plate, and cell-free culture medium was added to the blank control well. • 4) The culture plate was cultured overnight in a 37° C., 5% CO2 incubator with 100% relative humidity.
3. […]
Relative quantification of the density intensity of immunoblot chemiluminescence bands was performed using Image Studio Ver 5.2 software.

[1] = test system: human prostate cancer LNCaP xenograft tumor; assay: In vivo pharmacodynamic study, LNCaP subcutaneous xenograft tumor CB-17 SCID model; set-up: species or system CB-17 SCID mice; settings: WX002 30 mg/kg (D0-D3), 50 mg/kg (D4-D21) p.o. BID
Experimental: Human prostate cancer LNCaP cells (ECACC-89110211) were cultured in vitro in a monolayer under the culture conditions of RPMI-1640 medium with 10% fetal bovine serum, […], and 100 μg/mL streptomycin, and cultured in a 37° C., 5% CO2 incubator.
Routine digestion with trypsin-EDTA was performed twice a week for passaging. When the cell saturation density was 80% to 90% and the number of cells reached the required level, the cells were collected, counted, and inoculated.
CB-17 SCID mice, 6 to 8 weeks old, male, weighing 18 to 22 g.
0.2 mL (1×10^7) of LNCaP cells (with matrix gel, volume ratio of 1:1) were subcutaneously inoculated on the right back of each mouse. The mice were subjected to surgical castration when the average tumor volume reached approximately 80 mm^3, and grouping and administration were initiated when the average tumor volume reached 166 mm^3.
Tumor diameters were measured twice a week with a vernier caliper. The formula for calculating tumor volume was: V=0.5a×b^2, wherein a and b represented the long and short diameters of the tumor, respectively.
The antitumor efficacy of compounds was evaluated by TGI (%). TGI (%) reflected the tumor growth inhibition rate. TGI (0%)=[(1−(average tumor volume at the end of administration in a treatment group−average tumor volume at the beginning of administration in this treatment group))/(average tumor volume at the end of treatment in the vehicle control group−average tumor volume at the beginning of treatment in the vehicle control group)]×100%.

SMILES	DC50 (AR F876L)	Dmax (AR F876L; HEK-293T)	Tumor volume (Day 0) ([1]; Day 0, start of administration)	TGI (Day 21) ([1]; Day 21)	Tumor volume (Day 21) ([1]; Day 21)
N#Cc1ccc(O[C@H]2CC[C@H](NC(=O)c3ccc(N4CCC(CN5CCN(c6cccc7c6ccc6occ(C8CCC(=O)NC8=O)c67)CC5)CC4)nn3)CC2)cc1Cl (some centres unmarked) [Hydrochloride of WX015]	43 nM	85%	–	–	–
CC1(C)C(=O)N(c2ccc(C#N)c(C(F)(F)F)c2)C(=S)N1c1ccc(OCCN2CCN(CC(=O)Nc3ccc4c(C5CCC(=O)NC5=O)coc4c3)CC2)c(F)c1 (centres unmarked) [WX002]	–	–	166 ± 18 mm^3	89.1%	219 ± 39 mm^3
